# According to the kinase profiling compilation of Christmann-Franck et al. (2016):
# Experiments:
# Conditions in all cases: compound 10.0 µM
# [1] = target: CSNK1E (human) (UniProt P49674)
# [2] = target: GAK (human) (UniProt O14976)
# [3] = target: MAPK10 (human) (UniProt P53779)
# [4] = target: FGFR1 (human) (UniProt P11362)
# [5] = target: GSK3A (human) (UniProt P49840)
# [6] = target: MAP3K9 (human) (UniProt P80192)
# [7] = target: ACVRL1 (human) (UniProt P37023)
# [8] = target: WEE2 (human) (UniProt P0C1S8)
# [9] = system: EIF2AK4 KD2 (human), Q9P2K8 [S808G]
# [10] = target: MAP3K12 (human) (UniProt Q12852)
# [11] = target: PDGFRB (human) (UniProt P09619)
# [12] = target: JAK1 JH1 catalytic (human) (UniProt P23458)
# [13] = target: PLK1 (human) (UniProt P53350)
# [14] = target: PHKG1 (human) (UniProt Q16816)
# [15] = target: MAPK14 (human) (UniProt Q16539)
# [16] = target: BTK (human) (UniProt Q06187)
# [17] = target: CDK3 (human) (UniProt Q00526)
# [18] = target: PIM1 (human) (UniProt P11309)
# [19] = target: FER (human) (UniProt P16591)
# [20] = target: TAOK2 (human) (UniProt Q9UL54)
# [21] = target: NEK6 (human) (UniProt Q9HC98)
# [22] = target: PIP4K2C (human) (UniProt Q8TBX8)
# [23] = target: HIPK3 (human) (UniProt Q9H422)
# [24] = target: STK3 (human) (UniProt Q13188)
# [25] = target: SIK2 (human) (UniProt Q9H0K1)
# [26] = target: PRKD1 (human) (UniProt Q15139)
# [27] = target: PAK7 (human) (UniProt Q9P286)
# [28] = target: STK4 (human) (UniProt Q13043)
# [29] = target: PIP5K1C (human) (UniProt O60331)
# [30] = target: BMPR2 (human) (UniProt Q13873)
# [31] = target: CASK (human) (UniProt O14936)
# [32] = target: ROCK2 (human) (UniProt O75116)
# [33] = target: STK32A (human) (UniProt Q8WU08)
# [34] = target: FYN (human) (UniProt P06241)
# [35] = target: NIM1 (human) (UniProt Q8IY84)
# [36] = target: FLT3 (human) (UniProt P36888)
# [37] = target: CAMK2B (human) (UniProt Q13554)
# [38] = target: BMPR1A (human) (UniProt P36894)
# [39] = target: MERTK (human) (UniProt Q12866)
# [40] = system: MET (human), P08581 [M1250T]
# [41] = target: RPS6KA3 KD1 (human) (UniProt P51812)
# Chain of MAP3K9 (human) (P80192 whole entry, looked up): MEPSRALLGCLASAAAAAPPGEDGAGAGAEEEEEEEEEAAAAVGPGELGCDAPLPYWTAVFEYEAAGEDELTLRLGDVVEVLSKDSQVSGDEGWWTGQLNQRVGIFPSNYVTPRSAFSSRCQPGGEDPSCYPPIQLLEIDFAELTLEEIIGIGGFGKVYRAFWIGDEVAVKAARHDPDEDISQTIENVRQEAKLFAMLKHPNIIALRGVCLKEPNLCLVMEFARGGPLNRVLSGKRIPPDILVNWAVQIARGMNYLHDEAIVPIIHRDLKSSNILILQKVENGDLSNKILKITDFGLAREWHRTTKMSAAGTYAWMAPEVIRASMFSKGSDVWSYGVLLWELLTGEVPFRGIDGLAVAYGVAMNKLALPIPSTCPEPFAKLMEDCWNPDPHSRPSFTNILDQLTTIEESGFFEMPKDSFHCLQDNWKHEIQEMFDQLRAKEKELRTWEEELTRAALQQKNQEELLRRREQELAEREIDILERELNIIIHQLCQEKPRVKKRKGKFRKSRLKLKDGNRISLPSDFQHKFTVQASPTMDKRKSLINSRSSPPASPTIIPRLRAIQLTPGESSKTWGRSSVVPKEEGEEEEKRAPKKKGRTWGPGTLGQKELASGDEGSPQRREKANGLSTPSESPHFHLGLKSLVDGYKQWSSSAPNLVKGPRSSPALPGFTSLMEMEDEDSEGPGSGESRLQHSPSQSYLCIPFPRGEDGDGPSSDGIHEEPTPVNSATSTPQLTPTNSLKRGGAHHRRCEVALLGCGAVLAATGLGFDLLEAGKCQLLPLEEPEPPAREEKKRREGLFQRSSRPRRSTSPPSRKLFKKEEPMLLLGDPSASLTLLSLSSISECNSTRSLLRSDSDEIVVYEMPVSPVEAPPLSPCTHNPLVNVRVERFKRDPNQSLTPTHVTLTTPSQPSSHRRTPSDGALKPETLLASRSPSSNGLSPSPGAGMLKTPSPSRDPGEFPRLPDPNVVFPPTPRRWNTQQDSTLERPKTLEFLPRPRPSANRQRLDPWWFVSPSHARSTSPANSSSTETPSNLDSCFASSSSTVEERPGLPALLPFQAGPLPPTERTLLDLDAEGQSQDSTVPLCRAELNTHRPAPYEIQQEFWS
# Chain of MAPK10 (human) (P53779 whole entry, looked up): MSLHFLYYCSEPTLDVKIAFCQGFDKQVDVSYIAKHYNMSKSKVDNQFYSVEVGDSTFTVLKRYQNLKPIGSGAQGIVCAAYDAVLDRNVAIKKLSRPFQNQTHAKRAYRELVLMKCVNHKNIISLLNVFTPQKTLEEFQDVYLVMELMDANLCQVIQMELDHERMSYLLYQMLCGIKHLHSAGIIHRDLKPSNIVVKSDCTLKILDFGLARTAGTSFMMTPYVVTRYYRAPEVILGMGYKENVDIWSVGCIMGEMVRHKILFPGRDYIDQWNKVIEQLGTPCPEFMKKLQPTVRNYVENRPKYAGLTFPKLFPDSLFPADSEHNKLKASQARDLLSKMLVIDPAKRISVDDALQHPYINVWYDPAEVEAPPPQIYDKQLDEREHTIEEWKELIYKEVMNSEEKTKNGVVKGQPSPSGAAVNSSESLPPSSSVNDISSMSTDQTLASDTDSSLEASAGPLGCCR
# Chain of GSK3A (human) (P49840 whole entry, looked up): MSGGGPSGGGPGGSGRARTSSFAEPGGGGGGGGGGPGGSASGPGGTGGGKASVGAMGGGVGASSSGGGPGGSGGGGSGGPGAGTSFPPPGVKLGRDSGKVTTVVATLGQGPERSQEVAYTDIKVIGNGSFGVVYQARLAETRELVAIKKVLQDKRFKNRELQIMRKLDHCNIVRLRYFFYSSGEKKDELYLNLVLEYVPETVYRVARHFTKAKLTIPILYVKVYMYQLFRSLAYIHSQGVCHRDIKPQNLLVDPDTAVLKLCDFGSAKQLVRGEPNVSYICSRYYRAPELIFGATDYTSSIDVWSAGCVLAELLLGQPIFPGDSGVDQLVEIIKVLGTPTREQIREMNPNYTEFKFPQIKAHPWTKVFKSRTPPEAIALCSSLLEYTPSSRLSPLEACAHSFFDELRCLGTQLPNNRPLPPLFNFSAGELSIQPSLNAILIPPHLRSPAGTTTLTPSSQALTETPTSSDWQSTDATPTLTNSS
# Chain of PRKD1 (human) (Q15139 whole entry, looked up): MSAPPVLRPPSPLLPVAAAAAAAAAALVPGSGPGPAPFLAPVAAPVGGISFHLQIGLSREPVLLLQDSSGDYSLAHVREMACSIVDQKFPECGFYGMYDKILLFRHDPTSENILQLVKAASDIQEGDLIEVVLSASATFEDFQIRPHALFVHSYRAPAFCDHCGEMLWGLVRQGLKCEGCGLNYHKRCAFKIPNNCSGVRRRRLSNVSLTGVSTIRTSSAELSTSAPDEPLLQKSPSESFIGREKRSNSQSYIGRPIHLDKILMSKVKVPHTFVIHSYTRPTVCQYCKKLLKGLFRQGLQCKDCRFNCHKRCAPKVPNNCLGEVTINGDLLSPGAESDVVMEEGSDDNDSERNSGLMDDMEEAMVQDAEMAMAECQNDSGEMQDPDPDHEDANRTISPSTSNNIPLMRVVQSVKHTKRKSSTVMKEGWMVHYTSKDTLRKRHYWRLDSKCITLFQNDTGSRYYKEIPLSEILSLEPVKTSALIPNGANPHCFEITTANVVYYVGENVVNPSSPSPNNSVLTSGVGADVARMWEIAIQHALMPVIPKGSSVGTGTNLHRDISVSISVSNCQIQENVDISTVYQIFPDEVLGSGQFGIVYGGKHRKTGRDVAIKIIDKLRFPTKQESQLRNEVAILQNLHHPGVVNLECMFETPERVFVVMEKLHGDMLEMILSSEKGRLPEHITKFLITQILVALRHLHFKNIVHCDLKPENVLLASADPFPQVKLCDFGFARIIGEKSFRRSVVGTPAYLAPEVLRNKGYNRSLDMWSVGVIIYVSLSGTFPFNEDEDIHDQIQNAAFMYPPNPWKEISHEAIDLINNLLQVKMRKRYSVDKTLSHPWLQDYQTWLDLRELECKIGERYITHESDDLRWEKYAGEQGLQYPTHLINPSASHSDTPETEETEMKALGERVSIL
# Chain of CSNK1E (human) (P49674 whole entry, looked up): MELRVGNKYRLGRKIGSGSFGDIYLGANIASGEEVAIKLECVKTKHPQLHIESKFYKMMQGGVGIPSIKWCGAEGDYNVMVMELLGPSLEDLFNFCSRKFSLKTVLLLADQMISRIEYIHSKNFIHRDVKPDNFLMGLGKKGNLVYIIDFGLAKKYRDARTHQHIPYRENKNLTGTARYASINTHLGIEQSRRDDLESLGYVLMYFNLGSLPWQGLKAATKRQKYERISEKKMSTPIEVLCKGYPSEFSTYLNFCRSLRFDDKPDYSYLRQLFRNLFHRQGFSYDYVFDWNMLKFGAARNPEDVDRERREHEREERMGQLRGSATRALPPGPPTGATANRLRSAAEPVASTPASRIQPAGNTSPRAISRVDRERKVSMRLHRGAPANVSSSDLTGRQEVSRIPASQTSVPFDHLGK
# Chain of ROCK2 (human) (O75116 whole entry, looked up): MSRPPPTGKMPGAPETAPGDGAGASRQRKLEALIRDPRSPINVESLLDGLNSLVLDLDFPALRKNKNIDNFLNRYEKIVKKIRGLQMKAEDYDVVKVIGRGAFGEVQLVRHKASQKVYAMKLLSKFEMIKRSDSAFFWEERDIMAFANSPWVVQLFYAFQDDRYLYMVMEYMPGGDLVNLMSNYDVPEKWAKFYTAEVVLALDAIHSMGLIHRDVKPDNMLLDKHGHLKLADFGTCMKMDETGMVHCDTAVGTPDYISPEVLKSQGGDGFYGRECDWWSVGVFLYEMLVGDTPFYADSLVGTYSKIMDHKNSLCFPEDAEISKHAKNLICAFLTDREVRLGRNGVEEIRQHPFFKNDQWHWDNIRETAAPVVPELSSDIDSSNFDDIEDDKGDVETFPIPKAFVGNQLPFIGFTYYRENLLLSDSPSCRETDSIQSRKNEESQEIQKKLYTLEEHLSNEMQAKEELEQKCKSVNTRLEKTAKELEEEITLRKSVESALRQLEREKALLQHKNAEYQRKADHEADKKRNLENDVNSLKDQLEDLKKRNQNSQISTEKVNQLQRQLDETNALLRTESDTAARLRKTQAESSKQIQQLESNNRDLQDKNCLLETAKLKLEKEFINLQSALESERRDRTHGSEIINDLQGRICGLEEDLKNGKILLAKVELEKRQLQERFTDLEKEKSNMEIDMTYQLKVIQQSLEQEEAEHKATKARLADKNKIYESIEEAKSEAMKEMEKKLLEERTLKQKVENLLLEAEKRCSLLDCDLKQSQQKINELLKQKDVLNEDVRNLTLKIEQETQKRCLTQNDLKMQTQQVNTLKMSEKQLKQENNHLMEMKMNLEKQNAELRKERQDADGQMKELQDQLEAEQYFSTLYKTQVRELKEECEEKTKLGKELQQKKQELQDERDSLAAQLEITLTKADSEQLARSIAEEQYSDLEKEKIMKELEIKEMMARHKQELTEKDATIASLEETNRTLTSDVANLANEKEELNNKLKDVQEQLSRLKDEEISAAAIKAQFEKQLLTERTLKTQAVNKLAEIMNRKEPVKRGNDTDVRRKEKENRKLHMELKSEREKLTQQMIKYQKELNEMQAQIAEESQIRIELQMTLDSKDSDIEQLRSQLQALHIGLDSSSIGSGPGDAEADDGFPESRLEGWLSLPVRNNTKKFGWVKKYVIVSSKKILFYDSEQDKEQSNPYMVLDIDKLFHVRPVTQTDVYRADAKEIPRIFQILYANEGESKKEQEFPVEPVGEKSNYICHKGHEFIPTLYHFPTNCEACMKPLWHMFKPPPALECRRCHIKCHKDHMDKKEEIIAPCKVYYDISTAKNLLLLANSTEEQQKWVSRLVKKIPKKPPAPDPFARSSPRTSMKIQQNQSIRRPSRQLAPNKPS
# Chain of CDK3 (human) (Q00526 whole entry, looked up): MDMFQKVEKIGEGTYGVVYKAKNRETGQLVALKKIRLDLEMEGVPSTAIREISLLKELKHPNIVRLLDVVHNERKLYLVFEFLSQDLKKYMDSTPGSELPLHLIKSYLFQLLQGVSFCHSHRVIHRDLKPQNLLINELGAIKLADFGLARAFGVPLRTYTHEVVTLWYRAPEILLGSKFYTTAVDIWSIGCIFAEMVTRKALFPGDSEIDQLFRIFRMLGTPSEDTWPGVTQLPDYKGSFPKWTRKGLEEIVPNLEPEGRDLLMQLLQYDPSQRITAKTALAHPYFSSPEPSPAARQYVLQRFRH
compound,measurement,setting,value
CNC(=O)c1cc(Oc2ccc(NC(=O)Nc3ccc(Cl)c(C(F)(F)F)c3)cc2)ccn1,per cent of control,[1],99%
same,per cent of control,[2],62%
same,per cent of control,[3],90%
same,per cent of control,[4],3.4%
same,per cent of control,[5],100%
same,per cent of control,[6],100%
same,per cent of control,[7],100%
same,per cent of control,[8],100%
same,per cent of control,[9],60%
same,per cent of control,[10],100%
same,per cent of control,[11],0%
same,per cent of control,[12],42%
same,per cent of control,[13],100%
same,per cent of control,[14],73%
same,per cent of control,[15],0.1%
same,per cent of control,[16],62%
same,per cent of control,[17],41%
same,per cent of control,[18],100%
same,per cent of control,[19],77%
same,per cent of control,[20],0.65%
same,per cent of control,[21],100%
same,per cent of control,[22],34%
same,per cent of control,[23],1.2%
same,per cent of control,[24],100%
same,per cent of control,[25],74%
same,per cent of control,[26],100%
same,per cent of control,[27],100%
same,per cent of control,[28],96%
same,per cent of control,[29],79%
same,per cent of control,[30],100%
same,per cent of control,[31],100%
same,per cent of control,[32],90%
same,per cent of control,[33],100%
same,per cent of control,[34],35%
same,per cent of control,[35],100%
same,per cent of control,[36],0.05%
same,per cent of control,[37],96%
same,per cent of control,[38],100%
same,per cent of control,[39],2.4%
same,per cent of control,[40],86%
same,per cent of control,[41],99%
CNC(=O)c1cc(Oc2ccc(NC(=O)Nc3ccc(Cl)c(C(F)(F)F)c3)cc2)cc[n+]1[O-],per cent of control,[1],100%
same,per cent of control,[2],70%
same,per cent of control,[3],4.4%
same,per cent of control,[4],9.7%
same,per cent of control,[5],100%
same,per cent of control,[6],100%
same,per cent of control,[7],96%
same,per cent of control,[8],94%
same,per cent of control,[9],70%
same,per cent of control,[10],100%
same,per cent of control,[11],0%
same,per cent of control,[12],50%
same,per cent of control,[13],100%
same,per cent of control,[14],77%
same,per cent of control,[15],0%
same,per cent of control,[16],30%
same,per cent of control,[17],13%
same,per cent of control,[18],100%
same,per cent of control,[19],64%
same,per cent of control,[20],8%
same,per cent of control,[21],100%
same,per cent of control,[22],16%
same,per cent of control,[23],5.1%
same,per cent of control,[24],100%
same,per cent of control,[25],66%
same,per cent of control,[26],63%
same,per cent of control,[27],82%
same,per cent of control,[28],42%
same,per cent of control,[29],66%
same,per cent of control,[30],98%
same,per cent of control,[31],100%
same,per cent of control,[32],82%
same,per cent of control,[33],92%
same,per cent of control,[34],41%
same,per cent of control,[35],100%
same,per cent of control,[36],0.1%
same,per cent of control,[37],89%
same,per cent of control,[38],91%
same,per cent of control,[39],2%
same,per cent of control,[40],16%
same,per cent of control,[41],52%
